Assay results published in the NIST ThermoML archive (doi:10.1016/j.jct.2018.09.037).
“And” between values parts separate entries of the source, which are not always exact repeats. Equal values may be shown once. ± gives the expanded uncertainty stated by the source.

Experiment: xn = mol fraction of the nth substance listed
Conditions: 100 kPa, Liquid, Electromagnetic levitation / mass taken directly, volume taken from sample image

[Pd] [palladium] + [Fe]
Conditions | mass density
1414 K, x1 = 0.6 | 8979 ± 390 kg/m3
1437 K, x1 = 0.6 | 8950 ± 390 kg/m3
1440 K, x1 = 0.8 | 9717 ± 240 kg/m3
1476 K, x1 = 0.6 | 8899 ± 390 kg/m3
1483 K, x1 = 0.6 | 8904 ± 390 kg/m3
1483 K, x1 = 0.8 | 9676 ± 240 kg/m3
1500 K, x1 = 0.4 | 8297 ± 360 kg/m3
1512 K, x1 = 0.4 | 8275 ± 360 kg/m3
1536 K, x1 = 0.6 | 8856 ± 390 kg/m3
1543 K, x1 = 0.8 | 9619 ± 240 kg/m3
1551 K, x1 = 0.6 | 8825 ± 380 kg/m3
1562 K, x1 = 0.4 | 8208 ± 360 kg/m3
1590 K, x1 = 0.6 | 8791 ± 380 kg/m3
1598 K, x1 = 0.8 | 9769 ± 240 kg/m3
1613 K, x1 = 0.6 | 8779 ± 380 kg/m3
1613 K, x1 = 0.8 | 9499 ± 240 kg/m3
1624 K, x1 = 0.8 | 9547 ± 240 kg/m3
1625 K, x1 = 0.4 | 8150 ± 360 kg/m3
1625 K, x1 = 0.8 | 9735 ± 240 kg/m3
1630 K, x1 = 0.2 | 7824 ± 210 kg/m3
1633 K, x1 = 0.6 | 8756 ± 380 kg/m3
1651 K, x1 = 0.2 | 7615 ± 200 kg/m3
1663 K, x1 = 0.6 | 8735 ± 380 kg/m3
1665 K, x1 = 0.8 | 9694 ± 250 kg/m3
1667 K, x1 = 0.6 | 8709 ± 380 kg/m3
1668 K, x1 = 0.2 | 7805 ± 210 kg/m3
1672 K, x1 = 0.8 | 9450 ± 240 kg/m3
1681 K, x1 = 0.2 | 7789 ± 210 kg/m3 and 7591 ± 200 kg/m3
1707 K, x1 = 0.8 | 9656 ± 250 kg/m3
1711 K, x1 = 0.4 | 8076 ± 350 kg/m3
1713 K, x1 = 0.2 | 7775 ± 210 kg/m3
1715 K, x1 = 0.6 | 8695 ± 380 kg/m3
1721 K, x1 = 0.2 | 7550 ± 200 kg/m3
1725 K, x1 = 0.6 | 8660 ± 380 kg/m3
1742 K, x1 = 0.2 | 7739 ± 210 kg/m3
1749 K, x1 = 0.8 | 9379 ± 240 kg/m3
1767 K, x1 = 0.8 | 9602 ± 250 kg/m3
1772 K, x1 = 0.2 | 7506 ± 200 kg/m3
1789 K, x1 = 0.6 | 8633 ± 380 kg/m3
1790 K, x1 = 1 | 10670 ± 170 kg/m3
1795 K, x1 = 1 | 10672 ± 170 kg/m3
1796 K, x1 = 1 | 10652 ± 170 kg/m3
1802 K, x1 = 1 | 10686 ± 170 kg/m3
1809 K, x1 = 1 | 10670 ± 170 kg/m3
1820 K, x1 = 1 | 10677 ± 180 kg/m3
1829 K, x1 = 0.4 | 7971 ± 350 kg/m3
1831 K, x1 = 1 | 10627 ± 180 kg/m3
1832 K, x1 = 0.4 | 7965 ± 350 kg/m3
1832 K, x1 = 0.8 | 9536 ± 250 kg/m3
1838 K, x1 = 0.2 | 7700 ± 210 kg/m3
1841 K, x1 = 0.8 | 9278 ± 240 kg/m3
1843 K, x1 = 1 | 10654 ± 180 kg/m3
1856 K, x1 = 1 | 10601 ± 180 kg/m3
1864 K, x1 = 0.2 | 7646 ± 210 kg/m3
1872 K, x1 = 0.2 | 7426 ± 200 kg/m3
1878 K, x1 = 1 | 10558 ± 180 kg/m3
1879 K, x1 = 0.6 | 8530 ± 380 kg/m3
1889 K, x1 = 0.6 | 8544 ± 380 kg/m3
1889 K, x1 = 1 | 10592 ± 180 kg/m3
1890 K, x1 = 1 | 10575 ± 180 kg/m3
1916 K, x1 = 0.8 | 9434 ± 250 kg/m3
1917 K, x1 = 1 | 10529 ± 180 kg/m3
1935 K, x1 = 1 | 10478 ± 180 kg/m3
1951 K, x1 = 1 | 10465 ± 180 kg/m3
